Source: US8883754B2, “Method for inhibiting angiogenesis” (Ewha University—Industry Collaboration Foundation, priority 2009, dated 2014)
Read-outs that look alike come from different tables or passages of the source.

Tests used:
VEGF-VEGFR-2 signaling = conditions: for VEGFR-2 activation in response to VEGF in Prx II knockdown cells: HAECs with Prx II knockdown
Source text: Sequences of the four siRNA duplexes for human Prx II were 5′-[…]-3′ (#1, SEQ ID NO. 1), 5′-[…]-3′ (#2, SEQ ID NO. 2), 5′-[…]-3′ (#3, SEQ ID NO. 3) and 5′-[…]-3′ (#4, SEQ ID NO. 4). The Prx II siRNA duplex #1 was mainly used for the study. Sequences of the four siRNA duplexes for human Prx I were 5′-[…]-3′ (#1, SEQ ID NO. 5), 5′-[…]-3′ (#2, SEQ ID NO. 6), 5′-[…]-3′ (#3, SEQ ID NO. 7) and 5′-[…]-3′ (#4, SEQ ID NO. 8); those for human GPxl, 5′-[…]-3′ (#1, SEQ ID NO. 9), 5′-[…]-3′ (#2, SEQ ID NO. 10), 5′-[…]-3′ (#3, SEQ ID NO. 11) and 5′-[…]-3′ (#4, SEQ ID NO. 12). A Prx III-specific siRNA was previously described in Chang, T. S. et al., (J Biol Chem 2004 279 (40), 41975-41984). The firefly luciferase siRNA were purchased or synthesized from Dharmacon. SiRNA duplexes for human VEGFR-1 (Cat No. sc-29319), VEGFR-2 (Cat No. sc-29318), and Prx IV (Cat. No. sc-40835) was purchased from Santa Cruz Biotechnology. The sequence of siRNA specific to human NOX4 was 5′-[…]-3′ (SEQ ID NO. 13). Human caveolin-1 siRNA, 5′-[…]-3′ (SEQ ID NO. 14) was purchased from Qiagen. Unless otherwise stated, the endothelial cells (ECs) were transfected with the siRNA duplexes for 24 hrs using lipofectamine RNAi MAXTM (Invitrogen). Then, the cells were serum-starved for an additional 18 hrs in media containing 0.5% fetal bovine serum before VEGF stimulation.
(§1) For immunoblotting, cell lysates or the immunoprecipitates were mixed with 5× Laemmli sample buffer and boiled for 5 minutes. The samples were separated on a SDS denaturing gel and then electrophoretically transferred onto nitrocellulose membranes, which were subsequently subjected to immunoblotting. In order to block non-specific binding, the membrane was reacted with TBS (Tris-buffered saline; TBST) containing 0.5% Tween-20 and 5% nonfat milk at room temperature for 1 hour. The above described blots were reacted with each primary antibody in TBST containing 5% nonfat milk or BSA at 4° C. for overnight. After washing with TBST, the blots were reacted with horseradish peroxidase-conjugated goat anti-mouse immunoglobulin (IgG; 1:5000 dilution) or goat anti-rabbit IgG (1:3000 dilution) at room temperature for 45 minutes. Protein bands were detected using an Amersham ECLTM detection system (GE healthcare). When necessary, the membranes were stripped by shaking them for 60 minutes at 37° C. in 67 mM Tris (pH 6.7), 2% SDS, 100 mM 2-mercaptoethanol and reprobed. with the appropriate pan antibody.

[1] = tested on: intracellular ROS (H2O2) level in HAECs; test: Detection and measurement of reactive oxygen species (CM-H2DCFDA, DCF fluorescence); assay type: cell-based, human; conditions: for level of ROS/H2O2 elevated by the Prx II knockdown: HAECs with Prx II knockdown
Protocol: HAECs were rinsed with Endothelial Basal Medium without phenol red (EBM, Lonza) and immediately incubated with 5 μM 5,6-chloromethyl-2′,7′-dichlorodihydrofluorescein diacetate (CM-H2DCFDA) (Molecular Probe) at 37° C. for 5 minutes. After briefly washing the cell with EBM, the fluorescence images were taken by fluorescence microscope (Axiovert 200 Basic standard, Zeiss, Germany). The relative DCF fluorescence was calculated by averaging the levels of fluorescence from 50-80 cells after subtracting the background fluorescence.

VEGFR-2 RTK = target: T1, VEGFR-2 RTK (Homo sapiens, UniProt P35968); test: VEGFR-2 in vitro kinase assay on immunoprecipitates; assay type: cell-based
T1 construct: The VEGFR-2 was immunoprecipitated from Prx II siRNA-transfected or H2O2 (100 μM)-pretreated HAECs; endogenous in cells; host or cells: HAECs (human aortic endothelial cells)
Protocol: At the appropriate time, the culture media were aspirated and cells were lysed in extraction buffer (TEB) containing 20 mM Hepes (pH 7.0), 1% Triton X-100, 150 mM NaCl, 10% glycerol, 1 mM EDTA, 2 mM EGTA, 1 mM DTT, 5 mM Na3VO4, 5 mM NaF, 1 mM AEBSF, aprotinin (5 μg/mL), and leupeptin (5 μg/mL). After brief centrifugation, the protein content of samples was quantified using the Bradford reagent (Bio-Rad). For immunoprecipitation, the resulting supernatants (120 μg proteins) were pre-cleaned with 10 μL of protein-A/G Sepharose 4 Fast Flow beads (Amersham Biosciences) for 1 hr, incubated overnight with 2 μg of the indicated antibodies, and further incubated at 4° C. for 3 hrs with 20 μL of protein-A/G Sepharose beads. Immunocomplexes were washed three times with 1 mL of TEB and then subjected to either in vitro kinase assay or immunoblotting.
The in vitro kinase assay was done as previously described in Choi, M. H. et al., (Nature 2005 435 (7040), 347-353). Briefly, the immunocomplexes precipitated with rabbit anti-flk-1(sc-504) antibody were incubated with 30 μL of kinase buffer (20 mM HEPES pH 7.5, 20 mM MgCl2, 20 mM β-glycerophosphate, and 200 μM Na3VO4) containing […] of γ-^32[P]-ATP and 0.5 μg GST-PLCγ1 at 30° C. for 10 minutes. The reaction was stopped by the addition of a SDS sample buffer. The samples were then boiled and separated on SDS denaturing gel. […]

2-cys Prxs = conditions: HAECs
Protocol: as §1

HAECs = test: VEGF-induced tube formation on Matrigel; assay type: cell-based, human; conditions: HAECs expressing mVEGFR-2 WT or C1206S; 1 μM pretreated for 1 hr before VEGF
Protocol: For tube formation, the HAECs (50,000 cells/well) were placed on 12-well culture dishes coated with growth factor-reduced Matrigel matrix (BD Bioscience, cat #354230). Cells were cultured for 18 hrs in the EBM-2 media containing 0.5% serum medium in the presence or absence of VEGF-A (25 ng/mL). Thereafter, the cell images were taken from five random visual fields per sample and the total length of the tubes were quantitatively analyzed using an Image-Pro Plus version 6.2 (Media Cybernetics).

T1 sequence (P35968 20-1356): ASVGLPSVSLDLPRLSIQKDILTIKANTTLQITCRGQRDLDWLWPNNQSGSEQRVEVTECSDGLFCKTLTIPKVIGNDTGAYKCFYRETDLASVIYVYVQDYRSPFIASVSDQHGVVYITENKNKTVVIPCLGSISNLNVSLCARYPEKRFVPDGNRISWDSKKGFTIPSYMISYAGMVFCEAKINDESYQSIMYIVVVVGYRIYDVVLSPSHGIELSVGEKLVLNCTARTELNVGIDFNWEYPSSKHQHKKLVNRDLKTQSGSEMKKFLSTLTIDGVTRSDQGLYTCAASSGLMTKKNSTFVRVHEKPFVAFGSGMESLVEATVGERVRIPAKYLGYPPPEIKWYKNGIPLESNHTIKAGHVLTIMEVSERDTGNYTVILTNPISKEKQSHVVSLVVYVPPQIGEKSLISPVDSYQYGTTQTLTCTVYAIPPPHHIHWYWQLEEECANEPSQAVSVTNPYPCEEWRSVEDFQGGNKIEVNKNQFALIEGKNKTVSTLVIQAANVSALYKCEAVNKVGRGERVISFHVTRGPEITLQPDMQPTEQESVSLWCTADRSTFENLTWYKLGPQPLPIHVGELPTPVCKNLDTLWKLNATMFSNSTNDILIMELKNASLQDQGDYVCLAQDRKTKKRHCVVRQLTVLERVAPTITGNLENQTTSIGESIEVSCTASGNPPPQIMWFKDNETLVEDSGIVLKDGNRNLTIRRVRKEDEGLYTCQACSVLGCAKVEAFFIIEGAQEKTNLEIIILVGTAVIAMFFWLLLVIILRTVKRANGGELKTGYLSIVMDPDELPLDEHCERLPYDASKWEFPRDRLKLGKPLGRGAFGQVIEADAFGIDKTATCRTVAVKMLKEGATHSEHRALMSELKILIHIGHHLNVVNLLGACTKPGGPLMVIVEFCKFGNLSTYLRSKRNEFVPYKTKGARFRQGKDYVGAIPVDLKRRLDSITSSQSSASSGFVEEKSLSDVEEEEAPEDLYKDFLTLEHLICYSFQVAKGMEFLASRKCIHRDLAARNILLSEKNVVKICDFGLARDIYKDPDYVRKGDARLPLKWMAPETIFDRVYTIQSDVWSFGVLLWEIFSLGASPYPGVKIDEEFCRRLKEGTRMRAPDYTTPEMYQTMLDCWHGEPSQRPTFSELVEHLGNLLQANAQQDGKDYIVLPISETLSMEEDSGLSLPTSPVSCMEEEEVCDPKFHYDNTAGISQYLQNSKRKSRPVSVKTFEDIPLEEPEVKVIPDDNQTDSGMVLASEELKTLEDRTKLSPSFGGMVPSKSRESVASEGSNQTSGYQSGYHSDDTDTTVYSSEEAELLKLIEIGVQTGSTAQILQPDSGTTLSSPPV

5′-GCAUCAACUUGCAGAAAGAUU-3′ [caveolin-1 siRNA]
VEGFR-2 activation in response to VEGF in Prx II knockdown cells (VEGF-VEGFR-2 signaling): no longer affected by the Prx II knockdown

5′-GUCAACAUCCAGCUGUACC-3′ [NOX4 siRNA]
VEGFR-2 activation in response to VEGF in Prx II knockdown cells (VEGF-VEGFR-2 signaling): completely rescued | level of ROS/H2O2 elevated by the Prx II knockdown [1]: background level

O[C@H](CS)[C@H](O)CS (racemic) [DTT, dithiothreitol]
RTK activation abolished by Prx II knockdown or H2O2 treatment (VEGFR-2 RTK; VEGFR-2 immunoprecipitated from HAECs, incubated 10 minutes): fully restored

OO [H2O2, hydrogen peroxide]
hyperoxidation of 2-cys Prxs (2-cys Prxs; micromolar concentrations up to 100 μM, 10 minutes): did not induce hyperoxidation | hyperoxidation of 2-cys Prxs (2-cys Prxs; millimolar concentration (1 mM)): only slightly induced the hyperoxidation of Prx I and Prx III, but not Prx II | VEGF-dependent induction of VEGFR-2 RTK activation after pretreatment (VEGFR-2 RTK; HAECs pretreated at various concentrations): suppressed VEGF-dependent induction of VEGFR-2 RTK activation in a dose-dependent manner

Cc1cc(C)c(/C=C2\C(=O)Nc3ccccc32)[nH]1 [SU5416]
tube formation by VEGFR-2 WT and C1206S mutant (HAECs): completely blocked

VEGF
increase of ROS on VEGF treatment ([1]; control HAECs): two-fold

methyl-β-cyclodextrin [MβCD]
VEGFR-2 activation in response to VEGF in Prx II knockdown cells (VEGF-VEGFR-2 signaling): restored VEGFR-2 activation

B1: catalase: polyethylene glycol (PEG)-conjugated catalase, an enzyme that reduces H2O2 to H2O (protein, UniProt P00432 2-527, looked up)
Catalase: ADNRDPASDQMKHWKEQRAAQKPDVLTTGGGNPVGDKLNSLTVGPRGPLLVQDVVFTDEMAHFDRERIPERVVHAKGAGAFGYFEVTHDITRYSKAKVFEHIGKRTPIAVRFSTVAGESGSADTVRDPRGFAVKFYTEDGNWDLVGNNTPIFFIRDALLFPSFIHSQKRNPQTHLKDPDMVWDFWSLRPESLHQVSFLFSDRGIPDGHRHMNGYGSHTFKLVNANGEAVYCKFHYKTDQGIKNLSVEDAARLAHEDPDYGLRDLFNAIATGNYPSWTLYIQVMTFSEAEIFPFNPFDLTKVWPHGDYPLIPVGKLVLNRNPVNYFAEVEQLAFDPSNMPPGIEPSPDKMLQGRLFAYPDTHRHRLGPNYLQIPVNCPYRARVANYQRDGPMCMMDNQGGAPNYYPNSFSAPEHQPSALEHRTHFSGDVQRFNSANDDNVTQVRTFYLKVLNEEQRKRLCENIAGHLKDAQLFIQKKAVKNFSDVHPEYGSRIQALLDKYNEEKPKNAVHTYVQHGSHLSAREKANL
modifications: PEG
notes: polyethylene glycol (PEG)-conjugated catalase, an enzyme that reduces H2O2 to H2O
VEGF-dependent tyrosine phosphorylation (VEGF-VEGFR-2 signaling; HAECs pretreated with PEG-catalase, increasing doses, 18 hours): gradually decreased | level of ROS/H2O2 elevated by the Prx II knockdown [1]: background level
